Measurements from PubChem BioAssay (NCI).
Several values for one entry are separate records, joined by “and”; a condition that tells them apart may be missing. Identical values can stand only once.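 All cell lines were grown in 96-well plates and treated with compound for 48 hours. The concentration for full growth arrest is given as TGI.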 Where a SMILES comes first, the peptide text is derived from it. The star is where a group is joined. Boc = CC(C)(C)OC(=O)*; tBu = CC(C)(C)*

Key:
Assay in all cases: NCI-60 cell line screen, 48 h
M14 melanoma = tested on: M14 melanoma
DLD-1 colon = tested on: DLD-1 colon
HOP-18 NSCLC = tested on: HOP-18 NSCLC
KM20L2 colon = tested on: KM20L2 colon
LXFL 529 NSCLC = tested on: LXFL 529 NSCLC
M19-MEL melanoma = tested on: M19-MEL melanoma
RXF-631 renal = tested on: RXF-631 renal
SNB-78 CNS = tested on: SNB-78 CNS
DMS 114 small cell lung = tested on: DMS 114 small cell lung
DMS 273 small cell lung = tested on: DMS 273 small cell lung
XF 498 CNS = tested on: XF 498 CNS

COC(=O)c1ccccc1/C=C1\Cc2ccc3ccccc3c2C1C (configuration not stated)
TGI (M14 melanoma): > 100 µM

O=C(c1ccccc1)c1ccc2nc3n(c2c1)C(c1c(Cl)cccc1Cl)SC3 (configuration not stated)
TGI (M14 melanoma): 16.9 µM

CCN(CC)C(=S)S
TGI (DLD-1 colon): > 100 µM | TGI (HOP-18 NSCLC): > 100 µM | TGI (KM20L2 colon): > 100 µM | TGI (LXFL 529 NSCLC): > 100 µM | TGI (M14 melanoma): > 59.8 µM | TGI (M19-MEL melanoma): > 37.5 µM | TGI (RXF-631 renal): > 67.4 µM | TGI (SNB-78 CNS): > 100 µM

Cc1cc(OC(=O)c2c(C)cc(OC(=O)c3c(C)cc(O)cc3O)cc2O)cc(O)c1C(=O)O
TGI (DLD-1 colon): > 100 µM | TGI (DMS 114 small cell lung): > 100 µM | TGI (DMS 273 small cell lung): > 100 µM | TGI (KM20L2 colon): > 100 µM | TGI (LXFL 529 NSCLC): > 100 µM | TGI (M14 melanoma): > 100 µM | TGI (M19-MEL melanoma): > 100 µM | TGI (RXF-631 renal): > 100 µM | TGI (SNB-78 CNS): > 100 µM | TGI (XF 498 CNS): > 100 µM

Cc1cc(OC(=O)Nc2ccc(Cl)cc2)ccc1C(=S)Nc1ccccc1
TGI (M14 melanoma): > 100 µM

O=S(=O)(/N=C(\NO)Nc1ccc(Cl)cc1)c1cc(S(=O)(=O)c2ccccc2)cs1
TGI (M14 melanoma): 29.2 µM

CCOC(=O)[C@@H]1C[C@@H]1c1ccc(O)c(O)c1
TGI (M14 melanoma): 25.2 µM

FC(F)(F)c1cnc(N/N=C(/c2ccccc2)c2ccccn2)c(Cl)c1
TGI (M14 melanoma): 15.7 µM

CCCCOCCOCCOC1=C(Cl)C(=O)c2c(O)ccc(O)c2C1=O
TGI (M14 melanoma): 0.317 µM

N#Cc1c(N)nc2n[nH]c(N)c2c1-c1ccccc1
TGI (M14 melanoma): 37.5 µM

Nc1ncnc2c1ncn2CCOC(c1ccccc1)P(=O)(O)O (configuration not stated)
TGI (DLD-1 colon): > 100 µM | TGI (DMS 273 small cell lung): > 100 µM | TGI (KM20L2 colon): > 100 µM | TGI (LXFL 529 NSCLC): > 100 µM | TGI (M19-MEL melanoma): > 100 µM | TGI (SNB-78 CNS): > 100 µM

CC1=NNC(=O)[C@H]2[C@H]1CCC1[C@@H]2CC[C@]2(C)[C@@H](O)CC[C@@H]12 (some centres not stated)
TGI (M14 melanoma): > 100 µM

O=C(/C=C/c1ccc(Cl)cc1)c1ccc(Cl)s1
TGI (M14 melanoma): > 100 µM

CON(C)C(=O)C(C)NC(=O)OC(C)(C)C (configuration not stated)
TGI (M14 melanoma): > 100 µM

Nc1ncnc2sc(Nc3ccccc3)nc12
TGI (DLD-1 colon): > 100 µM | TGI (DMS 273 small cell lung): > 100 µM | TGI (KM20L2 colon): > 100 µM | TGI (LXFL 529 NSCLC): > 100 µM | TGI (M14 melanoma): > 100 µM | TGI (M19-MEL melanoma): > 100 µM | TGI (RXF-631 renal): > 100 µM | TGI (SNB-78 CNS): > 100 µM | TGI (XF 498 CNS): > 100 µM

CC(C)CCCC(C)[C@H]1CCC2[C@@H]3CCC4Cc5nc6c(nc5C[C@]4(C)C3CC[C@@]21C)CC1CC[C@@H]2C(CC[C@@]3(C)C2CC[C@@H]3O)[C@@]1(C)C6 (some centres not stated)
TGI (M14 melanoma): > 100 µM

O=C1c2ccccc2/C=C\C(c2ccccc2)=N/N1c1ccccc1Cl
TGI (M14 melanoma): 51.2 µM

COC(=O)[C@]1(C)[C@H]2C[C@H]3O[C@H]4[C@H](O)[C@@H](O)OC(CC(O)C(C5=CC(=O)OC5)C(C5=CC(=O)OC5)C(O)CC56CCCCC7[C@@H](C)[C@H](C[C@H]8[C@](C)(C(=O)OC)[C@H](O)CC[C@]78C)O[C@H]([C@@H](O)[C@H](O)O5)[C@H]6O)(CCCCC([C@@H]3C)[C@]2(C)CC[C@@H]1O)[C@H]4O (some centres not stated)
TGI (M14 melanoma): 1.16 µM

C=C(Cl)C(Cl)(CBr)CCC(Br)C(C)(C)Cl (configuration not stated)
TGI (M14 melanoma): 42.2 µM and 33.5 µM and > 74 µM

COc1cccc(N2C(=O)C3CC(CC(C)(C)C)c4c([nH]c5ccccc45)C3C2=O)c1 (configuration not stated)
TGI (M14 melanoma): > 10 µM

COc1ccc(/C=N/n2c(Cc3ccccc3)n[nH]c2=O)cc1
TGI (M14 melanoma): > 100 µM

CCN(CC)Cc1ccc(Nc2c3ccccc3nc3ccccc23)cc1
TGI (M14 melanoma): 3.15 µM

CC(=O)Oc1ccc2cc(Oc3ccccc3)c(=O)oc2c1
TGI (M14 melanoma): > 100 µM

CC(OC(C)(C)C)C(NC(=O)C(N)CCCCNC(=O)OC(C)(C)C)C(=O)NC(Cc1ccccc1)C(=O)O (configuration not stated) (H-Lys(Boc)-Thr(tBu)-Phe-OH; configuration not given here)
TGI (M14 melanoma): > 100 µM

CO[C@]12C[C@@H](CNC(=O)c3cc(Br)c[nH]3)O[C@H]1NC(=O)N2
TGI (M14 melanoma): > 100 µM

COc1cccc(Nc2nc(NS(=O)(=O)c3cc(C)c(Cl)cc3S)n[nH]2)c1
TGI (M14 melanoma): > 100 µM

C=C1C(=O)O[C@@H]2[C@H]1C[C@H](I)[C@@]1(C)CC[C@H](O1)[C@](C)(I)CCCC(C)[C@@H]2O (some centres not stated)
TGI (M14 melanoma): 19.4 µM

CCCCOc1ccc(S(=O)(=O)/N=C(\N)Nc2ccc(Cl)cc2)cc1
TGI (M14 melanoma): 38 µM

Cn1c(=O)c(C(=O)NC23CC4CC(CC(C4)C2)C3)c(O)c2ccccc21
TGI (DLD-1 colon): > 100 µM | TGI (DMS 114 small cell lung): > 100 µM | TGI (DMS 273 small cell lung): 64.3 µM | TGI (KM20L2 colon): > 100 µM | TGI (LXFL 529 NSCLC): > 100 µM | TGI (M14 melanoma): > 100 µM | TGI (M19-MEL melanoma): > 100 µM | TGI (SNB-78 CNS): > 100 µM

Nc1nc2c(c(=O)[nH]1)NC(CCNc1ccc(C(=O)O)cc1)CN2 (configuration not stated)
TGI (M14 melanoma): > 100 µM

O=C(O)Cc1ccc(Oc2nc3ccccc3nc2-c2ccccc2)cc1
TGI (M14 melanoma): > 100 µM

O=C(Nc1ccc(Cl)c(C(F)(F)F)c1)C(=O)c1c(O)c2ccccc2oc1=O
TGI (M14 melanoma): > 100 µM

O=C(NN1C(=O)C(Cl)C1c1c(O)ccc2ccccc12)c1ccccc1O (configuration not stated)
TGI (DLD-1 colon): > 100 µM | TGI (DMS 114 small cell lung): > 100 µM | TGI (DMS 273 small cell lung): > 100 µM | TGI (HOP-18 NSCLC): > 100 µM | TGI (LXFL 529 NSCLC): > 100 µM | TGI (M14 melanoma): > 100 µM | TGI (M19-MEL melanoma): > 100 µM | TGI (SNB-78 CNS): > 100 µM | TGI (XF 498 CNS): > 100 µM

Cc1cc(C)nc(NC(=S)Nc2ccc(Cl)cc2)c1
TGI (M14 melanoma): > 100 µM

O/N=C1\CSc2ccccc2C1
TGI (M14 melanoma): > 100 µM

COc1cccc(/C=C2/S/C(=N/Nc3nc(C)c(C(C)=O)s3)NC2=O)c1O
TGI (M14 melanoma): > 100 µM

CCOP(=O)(/C=C/n1cnc2c(=O)n(C(C)=O)c(N)nc21)OCC
TGI (M14 melanoma): > 100 µM

COc1ccc2c(C(=O)c3c(C)n(CCN4CCOCC4)c4ccccc34)cccc2c1
TGI (M14 melanoma): 87.7 µM
